From patent publication US20130040813A1 (priority 2010, published 2013)
Where two headings read alike, the source gives them in different places.

Key:
Type in all cases: cell-based
[1] = test system: Botrytis cinerea; test: Microtest: activity against the grey mold pathogen Botrytis cinerea; details: single compound, 7 days; for inhibition of growth at 0.25 ppm / inhibition of growth at 1 ppm / inhibition of growth at 4 ppm: Botrytis cinerea, 168 h, read-out: Observed efficacy
[2] = test system: Alternaria solani; test: Microtest: activity against the early blight pathogen Alternaria solani; details: single compound, 7 days
[3] = test system: Pyricularia oryzae; test: microbe, parasite or virus in culture
[4] = test system: Septoria tritici; test: Microtest: activity against the wheat leaf blotch pathogen Septoria tritici; details: single compound, 7 days
[5] = test system: Phytophthora infestans; details: single compound, 7 days
[6] = Pyricularia oryzae, 168 h, read-out: Observed efficacy
[7] = Zymoseptoria tritici, 168 h, 0.063 ppm, read-out: Observed efficacy
[8] = Zymoseptoria tritici, 168 h, 0.25 ppm, read-out: Observed efficacy
[9] = Zymoseptoria tritici, 168 h, read-out: Observed efficacy

Structure (SMILES) | Observed efficacy ([2]; 1 ppm) | inhibition of growth at 0.016 ppm [3, 6] | inhibition of growth at 0.063 ppm [3, 6] | inhibition of growth at 0.25 ppm [3, 6] | inhibition of growth at 0.063 ppm [4, 7] | inhibition of growth at 0.25 ppm [4, 8] | Observed efficacy ([5]; 1 ppm) | inhibition of growth at 1 ppm [1] | inhibition of growth at 4 ppm [1] | inhibition of growth at 1 ppm [4, 9] | also measured
Fc1ccc([C@]2(Cn3cncn3)O[C@H]2c2ccccc2Cl)cc1 (racemic) [II-4, Epoxiconazole, reference compound] | – | – | – | – | – | – | – | – | – | – | inhibition of growth at 0.25 ppm ([1]; 0.25 ppm): 40%
Fc1ccc(F)c2c(NCCc3ccc(Oc4cc(C(F)(F)F)ncn4)cc3)ncnc12 [Compound I-3, (5,8-Difluoro-quinazolin-4-yl)-{2-[4-(6-trifluoromethyl-pyrimidin-4-yloxy)-phenyl]-ethyl}-amine] | 35% | 34% | 45% | 43% | 30% | 33% | 47% | 22% | 35% | – | Observed efficacy ([2]; 0.25 ppm): 38%; inhibition of growth at 4 ppm [3, 6]: 72%
Fc1ccc(F)c2c(NCCc3ccc(Oc4cc(C(F)(F)F)ccn4)cc3)ncnc12 [Compound I-5, (5,8-Difluoro-quinazolin-4-yl)-{2-[4-(4-trifluoromethyl-pyridin-2-yloxy)-phenyl]-ethyl}-amine] | 38% | 36% | 54% | 59% | 37% | 40% | 49% | 14% | 22% | – | Observed efficacy ([2]; 0.25 ppm): 37%
COc1cc(CCNc2ncnc3c(F)ccc(F)c23)ccc1Oc1ncc(C(F)(F)F)cc1Cl [Compound I-17, (5,8-Difluoro-quinazolin-4-yl)-{2-[4-(3-chloro-5-trifluoromethyl-pyridin-2-yloxy)-3-methoxy-phenyl]-ethyl}-amine] | 26% | – | 14% | 36% | – | 30% | 42% | 4% | 11% | 33% | inhibition of growth at 4 ppm [3, 6]: 69%
COc1cc(CCNc2ncnc3c(F)ccc(F)c23)ccc1Oc1cc(C(F)(F)F)ccn1 [Compound I-18, (5,8-Difluoro-quinazolin-4-yl)-{2-[4-(4-trifluoromethyl-pyridin-2-yloxy)-3-methoxy-phenyl]-ethyl}-amine] | 44% | 41% | 49% | 54% | 41% | 44% | 50% | 11% | 24% | 44% | Observed efficacy ([2]; 0.25 ppm): 43%
COc1cc(CCNc2ncnc3c(F)cc(F)c(F)c23)ccc1Oc1cc(C(F)(F)F)ccn1 [Compound I-19, (5,6,8-Trifluoro-quinazolin-4-yl)-{2-[4-(4-trifluoromethyl-pyridin-2-yloxy)-3-methoxy-phenyl]-ethyl}-amine] | 40% | 29% | 51% | 53% | 40% | – | 47% | 12% | 15% | 41% | inhibition of growth at 4 ppm [3, 6]: 71%
CO/C=C(/C(=O)OC)c1ccccc1Oc1cc(Oc2ccccc2C#N)ncn1 [II-1, Azoxystrobin, reference compound] | – | – | – | – | – | – | – | – | – | – | Observed efficacy ([3]; 0.004 ppm, single compound, 7 days): 12%; Observed efficacy ([4]; 0.063 ppm): 54%; Observed efficacy ([4]; 0.25 ppm): 73%; Observed efficacy ([1]; 0.25 ppm): 12%
Cn1cc(C(=O)Nc2ccc(F)cc2-c2ccc(Cl)c(Cl)c2)c(C(F)F)n1 [II-2, Bixafen, reference compound] | – | – | – | – | – | – | – | – | – | – | Observed efficacy ([4]; 0.063 ppm): 40%
N#Cc1c(Cl)c(Cl)c(Cl)c(C#N)c1Cl [II-3, Chlorothalonil, reference compound] | – | – | – | – | – | – | – | 66% | – | – | –
CC(C)CC(C)c1sccc1NC(=O)c1cn(C)nc1C(F)(F)F (stereo not shown) [II-10, Penthiopyrad, reference compound] | – | – | – | – | – | – | – | – | – | – | inhibition of growth at 0.016 ppm ([4]; Zymoseptoria tritici, 168 h, 0.016 ppm, read-out: Observed efficacy): 30%
COC(=O)N(OC)c1ccccc1COc1ccn(-c2ccc(Cl)cc2)n1 [II-14, Pyraclostrobin, reference compound] | – | – | – | – | – | – | – | – | – | – | Observed efficacy ([2]; 0.016 ppm): 34%; inhibition of growth at 0.004 ppm [3, 6]: 39%; inhibition of growth at 0.004 ppm [4, 9]: 50%; Observed efficacy ([5]; 0.063 ppm): 25%; inhibition of growth at 0.25 ppm ([1]; 0.25 ppm): 20%
Fc1ccc(Oc2ccnc3cc(Cl)cc(Cl)c23)cc1 [II-15, Quinoxyfen, reference compound] | – | – | – | – | – | – | – | – | – | 10% | inhibition of growth at 16 ppm [3, 6]: 9%
CON=C(C(=O)OC)c1ccccc1CON=C(C)c1cccc(C(F)(F)F)c1 [II-17, Trifloxystrobin, reference compound] | – | 24% | – | – | – | – | – | – | – | – | Observed efficacy ([2]; 0.063 ppm): 48%; inhibition of growth at 0.004 ppm [4, 9]: 40%; inhibition of growth at 0.25 ppm ([1]; 0.25 ppm): 19%
